According to patent US11161989B2, “Near-infrared absorbing composition, optical structure, and camera module and electronic device comprising the same” (priority 2018, dated 2021):

Columns and labels:
[1] = Solubility of the copper complex in an organic solvent; type: physicochemical; details: organic solvent THF
Protocol: In Table 1, the “solubility” is evaluated as °, when greater than or equal to 50 wt % of a copper complex based on 100 wt % of an entire composition is dissolved in a corresponding organic solvent, and as X, when less than 50 wt % of a copper complex based on 100 wt % of an entire composition is dissolved in a corresponding organic solvent, and “ANIR” is measured under a THF concentration condition of 10 mg/m L.
In Table 2, “solubility” uses the same reference as Table 1.

[2] = Wavelength vs. absorbance of near-infrared absorbing compositions (UV-Vis spectrophotometer); type: physicochemical; details: for A430-565 (average absorbance in a visible light wavelength region) / λNIR (maximum absorption wavelength): 10 mg/mL in THF; for ANIR (maximum absorbance): THF concentration condition of 10 mg/mL; for Absorption area of near-infrared wavelength region: curve integrated from 700 nm to 1100 nm; for Absorption area of near-infrared wavelength region / Cut-off wavelength: composition in THF; for Cut-off wavelength: wavelength of 50% light transmittance after normalizing maximum absorbance to 1
Text: In Table 3, the “absorption area of a near-infrared wavelength region” is an area obtained by integrating each curve in a wavelength range from 700 nm to 1100 nm in FIG. 7, and the “cut-off wavelength” is a wavelength where each curve has light transmittance of 50% after normalizing absorbance corresponding to a y-axis of FIG. 7 to have a maximum absorbance of 1 and then, converting the normalized absorbance (An) into light transmittance (T) to satisfy Equation 1. T (%)=10^(2-An).

Absorption area of near-infrared wavelength region [2]	Cut-off wavelength [2] [nm]	SMILES	Solubility [1]	A430-565 (average absorbance in a visible light wavelength region) [2]	λNIR (maximum absorption wavelength) [2] [nm]	ANIR (maximum absorbance) [2]
328	636	O=C([O][Cu][O]C(=O)C(F)(F)F)C(F)(F)F [Comparative Example 1, reference compound]	∘	0.020	771	1.05
144	740	C=C(C)C(=O)OCCOP(=O)(O)[O][Cu][O]P(=O)(O)OCCOC(=O)C(=C)C [Comparative Example 2, reference compound]	∘	0.001	826	0.42
234	676	Cc1ccc(S(=O)(=O)[O][Cu][O]C(=O)C(F)(F)F)cc1 [Example 6]	∘	0.006	825	0.70
		CC(C)OP(=O)(O)[O][Cu][O]C(=O)C(F)(F)F [Example 3]	∘	0.008	794	1.04
		O=C([O][Cu][O]P(=O)(Oc1ccccc1)Oc1ccccc1)C(F)(F)F [Example 4]	∘	0.005	814	0.85
		CCOP(=O)(O)[O][Cu][O]C(=O)C(F)(F)F [Example 2]	∘	0.013	794	1.16
		C=C(C)C(=O)OCCOP(=O)(O)[O][Cu][O]C(=O)C(F)(F)F [Example 5]	∘	0.010	814	0.66
